This is an account of results in PubChem BioAssay (NCI).

Molecules are shown by their SMILES.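 Grown in 96-well plates, cells were treated for 48 hours with each compound at five concentrations. Insufficient inhibition: endpoint recorded as highest concentration tested. At the GI50, growth is halved. TGI denotes the concentration required for complete inhibition of growth.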

Test systems include PC-3 prostate; K-562 leukemia; HCC-2998 colon; UO-31 renal; IGROV1 ovarian; SK-OV-3 ovarian; ACHN renal; SK-MEL-2 melanoma; HL-60(TB) leukemia.
Common to all, as to experiment: DTP human tumour cell line panel, 48 h

Turning to `NCCCNCCCCN1CC1`, the TGI was over 34.9 µM with PC-3 prostate, over 20.7 µM with K-562 leukemia, over 36.2 µM in the experiment with HCC-2998 colon and over 100 µM with UO-31 renal.
For the compound `CCOC(=O)C(NC(=O)OC(C)(C)C)C(=O)OCC`, the TGI in the experiment with PC-3 prostate, in the experiment on K-562 leukemia, in the experiment with IGROV1 ovarian, in the experiment with SK-OV-3 ovarian, in the experiment on HCC-2998 colon and in the experiment on ACHN renal was over 100 µM in each case. The total growth inhibition concentration (TGI) in the experiment on UO-31 renal and in the experiment on SK-MEL-2 melanoma was over 100 µM in each case.
Turning to `CC(=O)/C(=C/N1CCNC1=S)C(=O)Nc1ccccc1C`, the concentration for total growth inhibition (TGI) in the experiment on PC-3 prostate, in the experiment on K-562 leukemia, in the experiment with IGROV1 ovarian, with SK-OV-3 ovarian, in the experiment on HCC-2998 colon and in the experiment with ACHN renal was over 100 µM in each case. The total growth inhibition concentration (TGI) in the experiment with UO-31 renal and in the experiment on SK-MEL-2 melanoma was over 100 µM in each case.
Consider `NC1CC=C(COC(=O)C(O)(c2ccccc2)C2CC2)CC1` (stereo not given), for which the TGI with PC-3 prostate, in the experiment on IGROV1 ovarian, with SK-OV-3 ovarian, in the experiment on HCC-2998 colon, in the experiment on ACHN renal and with UO-31 renal was over 100 µM throughout.
On to `Cc1nc2ccccc2c(/C=C/c2ccc(Cl)cc2)c1C(=O)/C=C/c1ccccc1`, for which the GI50 in the experiment on IGROV1 ovarian is 1.24 µM; with HCC-2998 colon it was 1.66 µM; with HL-60(TB) leukemia it was 2.01 µM; with ACHN renal, 1.53 µM; in the experiment with UO-31 renal it was 1.18 µM. Moreover, the total growth inhibition concentration (TGI) was determined as 3.68 µM in the experiment on IGROV1 ovarian; 3.3 µM in the experiment with HCC-2998 colon; 4.58 µM in the experiment on HL-60(TB) leukemia; 2.86 µM in the experiment on ACHN renal; 2.4 µM with UO-31 renal.
Regarding `S=c1[nH]c2ccc(I)cc2c(=S)n1Cc1ccccc1`, the concentration for total growth inhibition (TGI) in the experiment with PC-3 prostate is 15.5 µM; in the experiment on K-562 leukemia it was 14.6 µM; in the experiment on IGROV1 ovarian it was 27.6 µM; in the experiment on SK-OV-3 ovarian, over 100 µM; with HL-60(TB) leukemia it was 5.96 µM; with ACHN renal it was 58.7 µM. In addition, the values for the total growth inhibition concentration (TGI) in the experiment with UO-31 renal and with SK-MEL-2 melanoma were 24.8 µM and 18 µM, respectively.
On to `COc1ccc(N2NC(c3ccccc3)(c3ccccc3)C(C)C2=O)cc1` (stereo not given), for which the total growth inhibition concentration (TGI) in the experiment on PC-3 prostate, in the experiment on K-562 leukemia, with IGROV1 ovarian, with HCC-2998 colon, with HL-60(TB) leukemia and in the experiment with ACHN renal was over 100 µM each time. In addition, the concentration for total growth inhibition (TGI) with UO-31 renal and in the experiment on SK-MEL-2 melanoma was over 100 µM in each case.
For the compound `CCOc1ccc2c(c1)c(=O)c1c(NCCN(CC)CC)ccc3nnn2c31`, the concentration for total growth inhibition (TGI) in the experiment on PC-3 prostate is 49.7 µM; with K-562 leukemia, over 66.2 µM; in the experiment on IGROV1 ovarian it was 30.3 µM; with SK-OV-3 ovarian it was over 100 µM; with HCC-2998 colon it was over 50.4 µM; in the experiment on ACHN renal, over 56.1 µM. For the same compound, the TGI in the experiment with SK-MEL-2 melanoma is over 100 µM.
On to `CNc1ncnc2c1cnn2Cc1cn(COCC(O)CO)nn1` (stereo not given), for which the total growth inhibition concentration (TGI) in the experiment with PC-3 prostate, with IGROV1 ovarian, with SK-OV-3 ovarian, with HCC-2998 colon, in the experiment with HL-60(TB) leukemia and with ACHN renal was over 100 µM each time. Further, the concentration for total growth inhibition (TGI) in the experiment with UO-31 renal and in the experiment with SK-MEL-2 melanoma was over 100 µM throughout.
As to `CC1=C(C)C(=O)C(C2=CC(=O)C=CC2=O)=C(C2=CC(=O)C=CC2=O)C1=O`, the TGI with PC-3 prostate, in the experiment with IGROV1 ovarian, in the experiment with SK-OV-3 ovarian, in the experiment on HCC-2998 colon, in the experiment with HL-60(TB) leukemia and in the experiment with ACHN renal was over 100 µM in each case. For the same compound, the TGI in the experiment on UO-31 renal and in the experiment with SK-MEL-2 melanoma was over 100 µM each time.
As for `O=c1[nH]c(=S)c2cc3c(=S)[nH]c(=O)n(CCO)c3nc2n1CCO`, the TGI in the experiment on PC-3 prostate, in the experiment with K-562 leukemia, in the experiment on IGROV1 ovarian, with SK-OV-3 ovarian, with HCC-2998 colon and in the experiment on ACHN renal was over 100 µM throughout. For the same compound, the total growth inhibition concentration (TGI) in the experiment on UO-31 renal and in the experiment with SK-MEL-2 melanoma was over 100 µM in each case.
For `CC(=O)Nc1ccccc1NC1CC(C)N(c2ccccc2)N1C(C)=O` (stereo not given), the TGI with PC-3 prostate, with K-562 leukemia, in the experiment with IGROV1 ovarian, in the experiment on SK-OV-3 ovarian, in the experiment with HCC-2998 colon and with HL-60(TB) leukemia was over 10 µM in each case.
For `COc1ccc(-c2nn(-c3ccc(NC(=O)Nc4ccc(Cl)c(C(F)(F)F)c4)cc3)cc2-c2ccncc2)cc1Cl`, the GI50 is 0.793 µM with PC-3 prostate; 1.25 µM in the experiment on K-562 leukemia; 2.16 µM in the experiment with IGROV1 ovarian; 2.19 µM in the experiment with HCC-2998 colon; 2.13 µM in the experiment on HL-60(TB) leukemia; 1.6 µM in the experiment on ACHN renal. Besides, the GI50 in the experiment on UO-31 renal is 1.1 µM; in the experiment on SK-MEL-2 melanoma, 1.74 µM. The TGI in the experiment on PC-3 prostate was 5.49 µM; with K-562 leukemia it was 8.55 µM; in the experiment with IGROV1 ovarian it was 63.1 µM; in the experiment on HCC-2998 colon, 7.97 µM; in the experiment on HL-60(TB) leukemia, 5.75 µM; in the experiment on ACHN renal it was 5.27 µM. For the same compound, the TGI in the experiment with UO-31 renal came out at 3.05 µM; in the experiment with SK-MEL-2 melanoma, 3.75 µM.
`CSc1scc2c1/C(=N/NC(N)=O)CCC2`: the TGI in the experiment with PC-3 prostate, with K-562 leukemia, with SK-OV-3 ovarian, in the experiment with HCC-2998 colon, with ACHN renal and in the experiment on UO-31 renal was over 100 µM each time. Further, in the experiment on SK-MEL-2 melanoma, the TGI is over 100 µM.
As for `CCN1CCC(O)(/C=C/c2ccc(OC)cc2)C(C(=O)/C=C/c2ccc(OC)cc2)C1` (stereo not given), the TGI with PC-3 prostate was determined as 23.5 µM; in the experiment on K-562 leukemia, 12.2 µM; in the experiment with IGROV1 ovarian it was 29.8 µM; in the experiment on SK-OV-3 ovarian, 22.5 µM; in the experiment with HCC-2998 colon, 29 µM; with HL-60(TB) leukemia it was 52.2 µM. Further, the total growth inhibition concentration (TGI) turned out to be 26.6 µM in the experiment on ACHN renal and 21.5 µM in the experiment with UO-31 renal.
As to `COc1ccc2nc3cc(Cl)ccc3c(NCCNc3c4ccc(Cl)cc4nc4ccc(OC)cc34)c2c1`, the GI50 was 1.83 µM in the experiment with PC-3 prostate; 1.73 µM in the experiment with SK-OV-3 ovarian; 1.79 µM in the experiment on HCC-2998 colon; 1.6 µM in the experiment on ACHN renal; 1.81 µM in the experiment on SK-MEL-2 melanoma. Further, the TGI in the experiment with PC-3 prostate was found to be 3.45 µM; in the experiment with SK-OV-3 ovarian it was 3.13 µM; in the experiment with HCC-2998 colon it was 3.28 µM; with ACHN renal, 3.11 µM; with SK-MEL-2 melanoma, 3.5 µM.

In general, TGI refers to the concentration at which net growth stops. A higher TGI goes with less potent growth arrest. What is called GI50 is the concentration giving 50% growth inhibition.
